Source: patent publication US20180000085A1, “USE OF PICOLINAMIDE COMPOUNDS WITH FUNGICIDAL ACTIVITY” (DOW AGROSCIENCES LLC, priority 2014, published 2018)

What was measured:
Puccinia triticina = test: Wheat brown rust (PUCCRT) disease control on wheat seedlings; assay type: in vivo; conditions: for HV activity at 100 ppm PUCCRT 1DP (disease control rating) / HV activity at 100 ppm PUCCRT 3DC (disease control rating): HV application; for PUCCRT 1DP disease control rating, HV activity / PUCCRT 3DC disease control rating, HV activity: HV application at 100 ppm
Zymoseptoria tritici = test: Leaf blotch of wheat (SEPTTR) disease control on wheat seedlings; assay type: in vivo; set-up: key to SEPTTR 1DP, HV activity at 100 ppm (% control rating) / SEPTTR 3DC, HV activity at 100 ppm (% control rating) / SEPTTR disease control, 1DP / SEPTTR disease control, 3DC / SEPTTR 1DP disease control rating, HV activity / SEPTTR 3DC disease control rating, HV activity / SEPTTR 3DC, LV activity at 125.1 g/H (% Control rating) / SEPTTR 1DP, LV activity at 125.1 g/H (% Control rating) / SEPTTR 1DP disease control rating, LV activity at 125.1 g/H / SEPTTR 3DC disease control rating, LV activity at 125.1 g/H / SEPTTR 3DC disease control rating, HV activity at 100 ppm / SEPTTR 1DP disease control rating, HV activity at 100 ppm / HV activity at 100 ppm SEPTTR 3DC (disease control rating) / HV activity at 100 ppm SEPTTR 1DP (disease control rating) / LV activity at 125.1 g/H SEPTTR 1DP (disease control rating) / LV activity at 125.1 g/H SEPTTR 3DC (disease control rating): A: > 80; B: ≤ 80; C: Not Tested; D: No Activity Observed in the Reported Assay; conditions: for HV activity at 100 ppm SEPTTR 1DP (disease control rating) / HV activity at 100 ppm SEPTTR 3DC (disease control rating): HV application; for SEPTTR 1DP disease control rating, HV activity / SEPTTR 3DC disease control rating, HV activity: HV application at 100 ppm
[1] = 1 Day Protectant, wheat brown rust
[2] = 3 Day Curative, wheat brown rust
[3] = 1 Day Protectant, wheat leaf blotch
[4] = 3 Day Curative, wheat leaf blotch
[5] = low volume application, 125.1 g/H, 1 Day Protectant
[6] = low volume application, 125.1 g/H, 3 Day Curative
[7] = low volume application, 125.1 g/H, 1 day protectant
[8] = low volume application, 125.1 g/H, 3 day curative

Structure (SMILES)	PUCCRT 1DP disease control rating, HV activity (Puccinia triticina; [1])	PUCCRT 3DC disease control rating, HV activity (Puccinia triticina; [2])	SEPTTR 1DP disease control rating, HV activity (Zymoseptoria tritici; [3])	SEPTTR 3DC disease control rating, HV activity (Zymoseptoria tritici; [4])	PUCCRT 1DP, LV activity at 125.1 g/H (% Control rating) (Puccinia triticina; [5])	PUCCRT 3DC, LV activity at 125.1 g/H (% Control rating) (Puccinia triticina; [6])	SEPTTR 1DP, LV activity at 125.1 g/H (% Control rating) (Zymoseptoria tritici; [5])	SEPTTR 3DC, LV activity at 125.1 g/H (% Control rating) (Zymoseptoria tritici; [6])	further results
CCOc1ccnc(C(=O)N[C@@H](C)C(=O)O[C@@H](C)[C@@H](CC(C)C)Oc2cccc(F)c2)c1O [Cmpd 1039]									HV activity at 100 ppm PUCCRT 1DP (disease control rating) (Puccinia triticina; [1]): A (> 80); HV activity at 100 ppm PUCCRT 3DC (disease control rating) (Puccinia triticina; [2]): A (> 80); HV activity at 100 ppm SEPTTR 1DP (disease control rating) (Zymoseptoria tritici; [3]): D; HV activity at 100 ppm SEPTTR 3DC (disease control rating) (Zymoseptoria tritici; [4]): B (≤ 80)
CCC(CC)[C@@H](Oc1ccc(-c2ccccc2)cc1)[C@H](C)OC(=O)[C@@H](NC(=O)c1nccc(OC)c1O)C(C)C [Cmpd 414]	B (≤ 80)	B (≤ 80)	A (> 80)	B (≤ 80)					
CCC(CC)[C@@H](Oc1cc(F)cc(Cl)c1)[C@H](C)OC(=O)[C@H](C)NC(=O)c1nccc(OC)c1OC(C)=O [Cmpd 603]					A (> 80)	A (> 80)	A (> 80)	A (> 80)	
COc1ccnc(C(=O)N[C@@H](C)C(=O)O[C@@H](C)[C@@H](Cc2ccccc2)OCC(C)C)c1O [Cmpd 343]	A (> 80)	A (> 80)	A (> 80)	B (≤ 80)					
COc1cc(O[C@H](CC(C)C)[C@H](C)OC(=O)[C@H](C)NC(=O)c2nccc(OC)c2O)ccc1Cl [Cmpd 1052]									HV activity at 100 ppm PUCCRT 1DP (disease control rating) (Puccinia triticina; [1]): A (> 80); HV activity at 100 ppm PUCCRT 3DC (disease control rating) (Puccinia triticina; [2]): A (> 80); HV activity at 100 ppm SEPTTR 1DP (disease control rating) (Zymoseptoria tritici; [3]): A (> 80); HV activity at 100 ppm SEPTTR 3DC (disease control rating) (Zymoseptoria tritici; [4]): A (> 80)
COc1ccnc(C(=O)NC(C)C(=O)OC(C)C(Oc2ccccc2)c2nccs2)c1OCOC(C)=O (mixture of isomers) [Cmpd 861]									PUCCRT 1DP disease control rating, LV activity at 125.1 g/H (Puccinia triticina; [7]): A (> 80); PUCCRT 3DC disease control rating, LV activity at 125.1 g/H (Puccinia triticina; [8]): A (> 80); SEPTTR 1DP disease control rating, LV activity at 125.1 g/H (Zymoseptoria tritici; [7]): D; SEPTTR 3DC disease control rating, LV activity at 125.1 g/H (Zymoseptoria tritici; [8]): B (≤ 80)
COc1ccnc(C(=O)NC(C)C(=O)OC(C)C(Oc2cc(F)ccc2F)C(C)C)c1O (stereo not drawn) [Cmpd 392]	A (> 80)	A (> 80)	A (> 80)	A (> 80)					
CC[C@H](OC)[C@@H](Oc1ccc(Cl)cc1Cl)[C@H](C)OC(=O)[C@H](C)NC(=O)c1nccc(OC)c1O [Cmpd 402]	B (≤ 80)	B (≤ 80)	B (≤ 80)	B (≤ 80)					
CC[C@@H](CCC(C)C)[C@H](OCC1CC1)[C@H](C)OC(=O)[C@H](C)NC(=O)c1nccc(OC)c1OCOC(C)=O [Cmpd 503]					A (> 80)	A (> 80)	B (≤ 80)	A (> 80)	
COc1ccnc(C(=O)N[C@H](C(=O)O[C@@H](C)[C@H](Oc2ccc(C(F)(F)F)cc2)c2ccccc2)C(C)C)c1OCOC(C)=O [Cmpd 584]					A (> 80)	B (≤ 80)	A (> 80)	D	
CC[C@H](CC1CCCC1)[C@@H](OCC1CC1)[C@H](C)OC(=O)[C@H](C)NC(=O)c1nccc(OC)c1OCOC(C)=O [Cmpd 509]					B (≤ 80)	B (≤ 80)	B (≤ 80)	D	
C=CC[C@@H](Oc1ccc(F)cc1F)[C@H](C)OC(=O)[C@H](C)NC(=O)c1nccc(OC)c1OC(C)=O [Cmpd 1081]									LV activity at 125.1 g/H PUCCRT 1DP (disease control rating) (Puccinia triticina; low volume application, 125.1 g/H, 1 Day Protectant, wheat brown rust): A (> 80); LV activity at 125.1 g/H PUCCRT 3DC (disease control rating) (Puccinia triticina; low volume application, 125.1 g/H, 3 Day Curative, wheat brown rust): B (≤ 80); LV activity at 125.1 g/H SEPTTR 1DP (disease control rating) (Zymoseptoria tritici; low volume application, 125.1 g/H, 1 Day Protectant, wheat leaf blotch): D; LV activity at 125.1 g/H SEPTTR 3DC (disease control rating) (Zymoseptoria tritici; low volume application, 125.1 g/H, 3 Day Curative, wheat leaf blotch): D
